Data as given in article PMC10202811 (Nature Medicine, 2023).
Read-outs that look alike come from different tables or passages of the source.

Assay: Plasma pharmacokinetics of lorlatinib at steady state (LC-MS/MS, non-compartmental analysis)
Type: in vivo, human
Details: human, plasma, oral; for Cmax: read-out: Cmax; for Tmax: read-out: Tmax
Text: Lorlatinib was isolated from human plasma by a liquid-iquid extraction procedure. […] A linear-log trapezoidal method was used [NT] A best-fit method was used to estimate terminal elimination and to extrapolate any plasma concentration versus time profiles to compute [NT].

[1] = 60 mg/m2, Cohort A1, 60 mg/m2 per dose, C1D15, individual patient
[2] = 60 mg/m2, Cycle 1 Day 1, Cohort A1, 60 mg/m2 per dose, individual patients
[3] = 60 mg/m2, Cycle 1 Day 15, Cohort A1, 60 mg/m2 per dose, individual patients
[4] = 75 mg/m2, Cohort A1, 75 mg/m2 per dose, C1D15, Geometric Mean, N 3
[5] = 75 mg/m2, Cohort A1, 75 mg/m2 per dose, C1D15, Median, N 3
[6] = 75 mg/m2, Cycle 1 Day 1, Cohort A1, 75 mg/m2 per dose, individual patients
[7] = 95 mg/m2, Cohort A1, 95 mg/m2 per dose, C1D15, Geometric Mean, N 9
[8] = 95 mg/m2, Cohort A1, 95 mg/m2 per dose, C1D15, Median, N 9
[9] = 95 mg/m2, Cohort B2, 95 mg/m2 per dose, C1D15, Geometric Mean, N 2
[10] = 95 mg/m2, Cohort B2, 95 mg/m2 per dose, C1D15, Median, N 2
[11] = 95 mg/m2, Cohort B2, 95 mg/m2 per dose, C1D15, individual patient
[12] = 95 mg/m2, Cycle 1 Day 1, Cohort A1, 95 mg/m2 per dose
[13] = 95 mg/m2, Cycle 1 Day 1, Cohort B2, 95 mg/m2 per dose
[14] = 95 mg/m2, Cycle 1 Day 1, Cohort A1, 95 mg/m2 per dose, individual patients
[15] = 95 mg/m2, Cycle 1 Day 15, Cohort B2, 95 mg/m2 per dose
[16] = 95 mg/m2, steady state, Cohort B2 (with topotecan/cyclophosphamide), 95 mg/m^2 QD, individual values
[17] = 100 mg, Cohort A2, 100 mg per dose, C1D15, Geometric Mean, N 5
[18] = 100 mg, Cohort A2, 100 mg per dose, C1D15, Median, N 5
[19] = 100 mg, Cycle 1 Day 1, Cohort A2, 100 mg per dose, individual patients
[20] = 150 mg per dose, Cycle 1 Day 1, Cohort A2, 150 mg per dose
[21] = 150 mg per dose, Cycle 1 Day 15, Cohort A2, 150 mg per dose
[22] = 150 mg, Cohort A2, 150 mg per dose, C1D15, Geometric Mean, N 10
[23] = 150 mg, Cohort A2, 150 mg per dose, C1D15, Median, N 10
[24] = 150 mg, Cycle 1 Day 1, Cohort A2, 150 mg per dose, individual patients
[25] = 150 mg, Cycle 1 Day 15, Cohort A2, 150 mg per dose, individual patients

Structure (SMILES): C[C@H]1Oc2cc(cnc2N)-c2c(nn(C)c2C#N)CN(C)C(=O)c2ccc(F)cc21 [Lorlatinib, (10R)-7-amino-12-fluoro-2,10,16-trimethyl-15-oxo-10,15,16,17-tetrahydro-2H-8,4-(metheno)pyrazolo[4,3-h][2,5,11]-benzoxadiazacyclotetradecine-3-carbonitrile]
- Cmax [1]: 623 ng/mL
- Tmax [1]: 2 h
- AUC(0-t) [2]: 3960 ng·h/mL
- MRT last [2]: 6.96 h
- Cmax [2]: 761 ng/mL
- Tmax [2]: 1 h
- AUC(0-t) [3]: 4140 ng·h/mL
- AUC(0-inf) (60 mg/m2, Cycle 1 Day 15, Cohort A1, 60 mg/m2 per dose, individual patients, read-out: AUCINF_obs): 5050 ng·h/mL
- AUC(0-inf) (60 mg/m2, Cycle 1 Day 15, Cohort A1, 60 mg/m2 per dose, individual patients, read-out: AUCINF_pred): 5040 ng·h/mL
- AUC (60 mg/m2, Cycle 1 Day 15, Cohort A1, 60 mg/m2 per dose, individual patients, read-out: AUC_TAU): 4140 ng·h/mL
- AUC (60 mg/m2, Cycle 1 Day 15, Cohort A1, 60 mg/m2 per dose, individual patients, read-out: AUCall): 4140 ng·h/mL
- Cmax [3]: 623 ng/mL
- MRT inf (60 mg/m2, Cycle 1 Day 15, Cohort A1, 60 mg/m2 per dose, individual patients, read-out: MRTINF_obs): 13 h
- MRT inf (60 mg/m2, Cycle 1 Day 15, Cohort A1, 60 mg/m2 per dose, individual patients, read-out: MRTINF_pred): 12.9 h
- Tmax [3]: 2 h
- AUC (60 mg/m2, steady state, Cohort A1, 60 mg/m^2 QD, (CV), read-out: AUCtau): 3930 ng·h/mL
- Cmax (60 mg/m2, steady state, Cohort A1, 60 mg/m^2 QD, (CV)): 492 ng/mL
- Tmax (60 mg/m2, steady state, Cohort A1, 60 mg/m^2 QD): 2 h
- AUC (75 mg/m2, Cohort A1, 75 mg/m2 per dose, C1D15, Geometric Mean, N 3, read-out: AUC_TAU): 4150 ng·h/mL
- Cmax [4]: 645 ng/mL
- Tmax [4]: 2.29 h
- AUC (75 mg/m2, Cohort A1, 75 mg/m2 per dose, C1D15, Median, N 3, read-out: AUC_TAU): 4020 ng·h/mL
- Cmax [5]: 659 ng/mL
- Tmax [5]: 2 h
- Cmax (75 mg/m2, Cohort A1, 75 mg/m2 per dose, C1D15, individual patient): 659 ng/mL
- AUC(0-t) [6]: 6740 ng·h/mL
- MRT last [6]: 7.77 h
- AUC (75 mg/m2, Cycle 1 Day 1, Cohort A1, 75 mg/m2 per dose, individual patients, read-out: AUCall): 6740 ng·h/mL
- Cmax [6]: 961 ng/mL
- Tmax [6]: 1 h
- AUC(0-inf) (75 mg/m2, Cycle 1 Day 15, Cohort A1, 75 mg/m2 per dose, individual patients, read-out: AUCINF_obs): 4500 ng·h/mL
- AUC(0-inf) (75 mg/m2, Cycle 1 Day 15, Cohort A1, 75 mg/m2 per dose, individual patients, read-out: AUCINF_pred): 4490 ng·h/mL
- Cmax (75 mg/m2, Cycle 1 Day 15, Cohort A1, 75 mg/m2 per dose, individual patients): 659 ng/mL
- MRT inf (75 mg/m2, Cycle 1 Day 15, Cohort A1, 75 mg/m2 per dose, individual patients, read-out: MRTINF_obs): 10.3 h
- MRT inf (75 mg/m2, Cycle 1 Day 15, Cohort A1, 75 mg/m2 per dose, individual patients, read-out: MRTINF_pred): 10.3 h
- AUC (75 mg/m2, steady state, Cohort A1, 75 mg/m^2 QD, (CV), read-out: AUCtau): 4160 ng·h/mL
- Cmax (75 mg/m2, steady state, Cohort A1, 75 mg/m^2 QD, (CV)): 645 ng/mL
- Tmax (75 mg/m2, steady state, Cohort A1, 75 mg/m^2 QD): 2 h
- AUC (95 mg/m2, Cohort A1, 95 mg/m2 per dose, C1D15, Geometric Mean, N 9, read-out: AUC_TAU): 7470 ng·h/mL
- Cmax [7]: 1020 ng/mL
- Tmax [7]: 1.47 h
- AUC (95 mg/m2, Cohort A1, 95 mg/m2 per dose, C1D15, Median, N 9, read-out: AUC_TAU): 6910 ng·h/mL
- Cmax [8]: 1100 ng/mL
- Tmax [8]: 1 h
- AUC (95 mg/m2, Cohort B2, 95 mg/m2 per dose, C1D15, Geometric Mean, N 2, read-out: AUC_TAU): 6690 ng·h/mL
- Cmax [9]: 817 ng/mL
- Tmax [9]: 2.83 h
- AUC (95 mg/m2, Cohort B2, 95 mg/m2 per dose, C1D15, Median, N 2, read-out: AUC_TAU): 6810 ng·h/mL
- Cmax [10]: 824 ng/mL
- Tmax [10]: 3 h
- AUC (95 mg/m2, Cohort B2, 95 mg/m2 per dose, C1D15, individual patient, read-out: AUC_TAU): 8100 ng·h/mL
- Cmax [11]: 926 ng/mL
- Tmax [11]: 4 h
- MRT last [12]: 7.38 h
- Tmax [12]: 1 h
- Cmax [13]: 914 ng/mL
- Tmax [13]: 2 h
- MRT last [14]: 9.06 h
- Tmax [14]: 2 h
- Tmax (95 mg/m2, Cycle 1 Day 15, Cohort A1, 95 mg/m2 per dose): 1 h
- AUC(0-t) [15]: 8100 ng·h/mL
- AUC(0-inf) (95 mg/m2, Cycle 1 Day 15, Cohort B2, 95 mg/m2 per dose, read-out: AUCINF_obs): 5730 ng·h/mL
- AUC(0-inf) (95 mg/m2, Cycle 1 Day 15, Cohort B2, 95 mg/m2 per dose, read-out: AUCINF_pred): 5730 ng·h/mL
- AUC (95 mg/m2, Cycle 1 Day 15, Cohort B2, 95 mg/m2 per dose, read-out: AUC_TAU): 8100 ng·h/mL
- AUC (95 mg/m2, Cycle 1 Day 15, Cohort B2, 95 mg/m2 per dose, read-out: AUCall): 8100 ng·h/mL
- Cmax [15]: 926 ng/mL
- MRT inf (95 mg/m2, Cycle 1 Day 15, Cohort B2, 95 mg/m2 per dose, read-out: MRTINF_obs): 7.79 h
- MRT inf (95 mg/m2, Cycle 1 Day 15, Cohort B2, 95 mg/m2 per dose, read-out: MRTINF_pred): 7.77 h
- Tmax [15]: 4 h
- MRT inf (95 mg/m2, Cycle 1 Day 15, Cohort A1, 95 mg/m2 per dose, individual patients, read-out: MRTINF_obs): 20.6 h
- MRT inf (95 mg/m2, Cycle 1 Day 15, Cohort A1, 95 mg/m2 per dose, individual patients, read-out: MRTINF_pred): 20.5 h
- AUC (95 mg/m2, steady state, Cohort A1, 95 mg/m^2 QD, (CV), read-out: AUCtau): 7470 ng·h/mL
- Cmax (95 mg/m2, steady state, Cohort A1, 95 mg/m^2 QD, (CV)): 1020 ng/mL
- Tmax (95 mg/m2, steady state, Cohort A1, 95 mg/m^2 QD): 1 h
- AUC (95 mg/m2, steady state, Cohort B2 (with topotecan/cyclophosphamide), 95 mg/m^2 QD, individual values, read-out: AUCtau): 8100 ng·h/mL
- Cmax [16]: 926 ng/mL
- Tmax [16]: 4 h
- AUC (100 mg, Cohort A2, 100 mg per dose, C1D15, Geometric Mean, N 5, read-out: AUC_TAU): 6790 ng·h/mL
- Cmax [17]: 789 ng/mL
- Tmax [17]: 1.74 h
- AUC (100 mg, Cohort A2, 100 mg per dose, C1D15, Median, N 5, read-out: AUC_TAU): 6130 ng·h/mL
- Cmax [18]: 569 ng/mL
- Tmax [18]: 2 h
- MRT last [19]: 12.4 h
- Tmax [19]: 2 h
- MRT inf (100 mg, Cycle 1 Day 15, Cohort A2, 100 mg per dose, individual patients, read-out: MRTINF_obs): 23.8 h
- MRT inf (100 mg, Cycle 1 Day 15, Cohort A2, 100 mg per dose, individual patients, read-out: MRTINF_pred): 23.7 h
- AUC (100 mg, steady state, Cohort A2, 100 mg QD, (CV), read-out: AUCtau): 6790 ng·h/mL
- Cmax (100 mg, steady state, Cohort A2, 100 mg QD, (CV)): 789 ng/mL
- Tmax (100 mg, steady state, Cohort A2, 100 mg QD): 2 h
- AUC(0-t) [20]: 8990 ng·h/mL
- MRT last [20]: 9.33 h
- AUC (150 mg per dose, Cycle 1 Day 1, Cohort A2, 150 mg per dose, read-out: AUCall): 8990 ng·h/mL
- Tmax [20]: 1 h
- AUC(0-t) [21]: 5000 ng·h/mL
- AUC (150 mg per dose, Cycle 1 Day 15, Cohort A2, 150 mg per dose, read-out: AUCall): 5000 ng·h/mL
- Tmax [21]: 2 h
- AUC (150 mg, Cohort A2, 150 mg per dose, C1D15, Geometric Mean, N 10, read-out: AUC_TAU): 6680 ng·h/mL
- Cmax [22]: 741 ng/mL
- Tmax [22]: 1.41 h
- AUC (150 mg, Cohort A2, 150 mg per dose, C1D15, Median, N 10, read-out: AUC_TAU): 6890 ng·h/mL
- Cmax [23]: 710 ng/mL
- Tmax [23]: 1 h
- AUC (150 mg, Cohort A2, 150 mg per dose, C1D15, individual patient, read-out: AUC_TAU): 5920 ng·h/mL
- AUC(0-t) [24]: 5920 ng·h/mL
- MRT last [24]: 8.35 h
- AUC (150 mg, Cycle 1 Day 1, Cohort A2, 150 mg per dose, individual patients, read-out: AUCall): 5920 ng·h/mL
- Cmax [24]: 564 ng/mL
- Tmax [24]: 1 h
- AUC (150 mg, Cycle 1 Day 15, Cohort A2, 150 mg per dose, read-out: AUC_TAU): 5000 ng·h/mL
- AUC(0-t) [25]: 7380 ng·h/mL
- AUC(0-inf) (150 mg, Cycle 1 Day 15, Cohort A2, 150 mg per dose, individual patients, read-out: AUCINF_pred): 8770 ng·h/mL
- AUC (150 mg, Cycle 1 Day 15, Cohort A2, 150 mg per dose, individual patients, read-out: AUC_TAU): 7380 ng·h/mL
- AUC (150 mg, Cycle 1 Day 15, Cohort A2, 150 mg per dose, individual patients, read-out: AUCall): 7380 ng·h/mL
- concentration at 24 h (150 mg, Cycle 1 Day 15, Cohort A2, 150 mg per dose, individual patients, read-out: Clast_pred): 128 ng/mL
- Cmax [25]: 658 ng/mL
- MRT inf (150 mg, Cycle 1 Day 15, Cohort A2, 150 mg per dose, individual patients, read-out: MRTINF_obs): 16.8 h
- MRT inf (150 mg, Cycle 1 Day 15, Cohort A2, 150 mg per dose, individual patients, read-out: MRTINF_pred): 16.7 h
- AUC (150 mg, steady state, Cohort A2, 150 mg QD, (CV), read-out: AUCtau): 6680 ng·h/mL
- Cmax (150 mg, steady state, Cohort A2, 150 mg QD, (CV)): 741 ng/mL
- Tmax (150 mg, steady state, Cohort A2, 150 mg QD): 1 h
